Experimental data published in patent US20060078584A1, “Multi-functional oxidizing composition” (priority 2004, published 2006).
Read-outs that look alike come from different tables or passages of the source.

Key:
[1] = Storage stability of dry blends (ambient and accelerated aging in humid oven); type: physicochemical; settings: one month
Procedure: In all examples, active oxidant concentrations are expressed in weight percent and are determined by standard iodometric titration as described in the “OXONE Monopersulfate Compound Technical Information” Bulletin, No. H-42434-5, dated April 2000, published by E. I. du Pont de Nemours and Company.
A weighed sample (0.05-0.30 g) to be analyzed is dissolved in cold deionized water (<10° C., about 50 mL), treated with potassium iodide solution (10 mL 25% aqueous), acidified (10 mL 20% sulfuric acid), and titrated with standardized 0.1N sodium thiosulfate reagent to an endpoint visualized by a starch indicator. The total active oxidant content (active oxygen+active halogen) is expressed as percent active oxygen (% AO) and is calculated as follows: % AO=(0.8×Volume of titrant, mL)(Normality of titrant)/(Sample Weight, g).
OXONE monopersulfate compound (180 g, 90 wt. %) and anhydrous sodium dichloro-s-triazinetrione (20 g, 10 wt. %) were dry blended in a 250-ml high-density poly(propylene (HDPE) bottle. The mixture was placed on a laboratory roll mill for two hours to ensure complete blending of the components. The blended product was then divided into two portions. One portion was stored at ambient conditions (22±2° C., 55±5% relative humidity [RH]); the other in a humid oven at 50±2° C., 80±5% RH denoted as “accelerated aging”). Both portions were stored in sealed screw-cap HDPE bottles. Both samples were monitored on a weekly basis for one month to assess physical integrity and active oxidant loss. […]. […].

[2] = cited from earlier work
[3] = Solubility in water and in acidic potassium monopersulfate solution; settings: in a 20% potassium monopersulfate solution, pH of about 1.2
[4] = accelerated aging, 50° C., 80% RH
[5] = accelerated aging, 50±2° C., 80±5% RH, sealed HDPE containers

O=c1nc([O-])n(Cl)c(=O)n1Cl.[Na+] [Comparative Example E, Anhydrous sodium dichloro-s-triazinetrione]
Active oxidant retention / loss [1, 4]: acceptable active oxidant stability | Chlorine odor / halogen evolution [1, 4]: characteristic chlorine odor | Flowability [1, 4]: good flowability | Chlorine Odor (degree 0-5) [1, 5]: 3 | Flowability [1, 5]: Free-flowing | Total % AO Remaining (%) ([1]; total oxidant (active oxygen + active halogen) remaining after accelerated storage, 50° C., 80% RH): 93% | Solubility in water ([2]; neutral pH (about pH 6-7), 25° C.): about 24 g/100 g H2O | Solubility [3]: about 1 g/100 mL

CC1(C)C(=O)N(Br)C(=O)N1Cl [bromochlorodimethylhydantion, 3-bromo-1-chloro-5,5-dimethylhydantoin]
Solubility in water [2]: 0.2 g/100 g water

CC1(C)C(=O)N(Br)C(=O)N1Br [dibromodimethylhydantion, 1,3-dibromo-5,5-dimethylhydantoin]
Solubility in water [2]: 0.25 g/100 g water

CC1(C)C(=O)N(Cl)C(=O)N1Cl [dichlorodimethylhydantion, 1,3-dichloro-5,5-dimethylhydantoin]
Solubility in water [2]: 0.2 g/100 g water
